Laboratory results: PMC7010297, “How the initiating ribosome copes with ppGpp to translate mRNAs” (PLoS Biology, 2020)
Values joined by “and” are separate entries in the source; they are usually repeats but may differ in a detail not shown here. Equal entries are not always repeated. Where two headings read alike, the source gives them in different places.

Columns and labels:
30S-bound IF2 (30S IC) = biological target: T1, 30S-bound IF2 (30S IC) (Escherichia coli, UniProt P0A705); assay: ppGpp (or GDP) to GTP competitive assay for 30S IC formation by MST; type: binding
T1 construct: 6xHis (N); made in house
T1 sequence (P0A705 whole entry, looked up): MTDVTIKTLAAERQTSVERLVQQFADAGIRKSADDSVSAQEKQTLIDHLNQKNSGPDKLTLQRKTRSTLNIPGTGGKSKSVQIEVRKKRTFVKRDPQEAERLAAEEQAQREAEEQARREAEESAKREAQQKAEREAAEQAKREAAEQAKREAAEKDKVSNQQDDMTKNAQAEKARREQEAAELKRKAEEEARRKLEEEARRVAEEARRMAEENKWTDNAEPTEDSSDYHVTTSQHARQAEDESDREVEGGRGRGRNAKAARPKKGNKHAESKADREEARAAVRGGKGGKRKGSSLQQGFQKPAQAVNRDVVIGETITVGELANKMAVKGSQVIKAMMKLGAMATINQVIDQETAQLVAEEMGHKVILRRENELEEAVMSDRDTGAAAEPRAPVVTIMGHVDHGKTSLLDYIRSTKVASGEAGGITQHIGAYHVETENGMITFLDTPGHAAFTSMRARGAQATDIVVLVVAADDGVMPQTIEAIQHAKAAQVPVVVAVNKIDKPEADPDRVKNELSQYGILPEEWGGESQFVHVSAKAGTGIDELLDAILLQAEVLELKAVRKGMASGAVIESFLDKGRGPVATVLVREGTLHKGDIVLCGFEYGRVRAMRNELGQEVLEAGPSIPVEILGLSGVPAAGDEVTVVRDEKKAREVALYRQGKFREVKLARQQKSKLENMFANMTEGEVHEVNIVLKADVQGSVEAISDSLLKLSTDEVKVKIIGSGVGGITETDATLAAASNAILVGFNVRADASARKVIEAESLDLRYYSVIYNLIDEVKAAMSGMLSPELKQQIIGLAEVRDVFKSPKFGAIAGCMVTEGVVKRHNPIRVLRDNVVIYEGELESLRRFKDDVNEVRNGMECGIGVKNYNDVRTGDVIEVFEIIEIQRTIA
Method: MST was calculated from the respective fluorescence time dependencies (S3 Fig). […] Symbols as in (B). […] Continuous lines indicate nonlinear regression fittings with quadratic (B and E) or same-site competition (G) functions. Three measurements were performed; mean and standard deviations are plotted (S1 Data).
[…] Symbols are as indicated, 3 measurements were performed, and mean and standard deviation are plotted (S1 Data). Continuous lines show nonlinear regression fittings with a same-site inhibition model. […] (PDF) Click here for additional data file.

IF2 = biological target: T2, IF2 (Escherichia coli, UniProt P0A705); assay: IF2-Bpy-tRNAi-GNP ternary complex formation by MST; type: binding; conditions: S2A Fig
T2 construct: 6xHis (N); made in house
T2 sequence (P0A705 whole entry): as the sequence (P0A705 whole entry, looked up) above
Method: Supplementary file pbio.3000593.s002.pdf: S2 Fig IF2-Bpy-tRNAi complex formation as a function of guanosine nucleotides. (A) IF2 concentration dependencies for Bpy-tRNAi binding in the presence of 0.5 mM of the indicated guanosine nucleotides to build IF2-tRNA-GNP ternary complexes (TCs). […] Three to five measurements were performed; mean and standard deviation are plotted (S1 Data). […] (PDF) Click here for additional data file.

Nc1nc2c(ncn2[C@@H]2O[C@H](COP(=O)(O)OP(=O)(O)O)[C@@H](OP(=O)(O)OP(=O)(O)O)[C@H]2O)c(=O)[nH]1 [ppGpp]
MST Average (30S-bound IF2 (30S IC); mMF1, Log [ppGpp] -0.01): 1022.73 a.u. | MST Average (30S-bound IF2 (30S IC); mMF1, Log [ppGpp] -0.31): 1023.54 a.u. | MST Average (30S-bound IF2 (30S IC); mMF1, Log [ppGpp] -0.61): 1029.40 a.u. | IC50 (30S-bound IF2 (30S IC); mRNA mInfA, read-out: IC50 Average): 29 µM | IC50 (30S-bound IF2 (30S IC); mRNA mInfA, read-out: IC50 Replicates): 28.5 µM and 29 µM and 29.5 µM | IC50 (30S-bound IF2 (30S IC); mRNA mMF1, read-out: IC50 Average): 8.64 µM | IC50 (30S-bound IF2 (30S IC); mRNA mMF1, read-out: IC50 Replicates): 8.44 µM and 8.71 µM and 8.75 µM | IC50 (30S-bound IF2 (30S IC); mRNA mTufA, read-out: IC50 Average): 131 µM | IC50 (30S-bound IF2 (30S IC); mRNA mTufA, read-out: IC50 Replicates): 130 µM and 131 µM and 132 µM | MST Average (30S-bound IF2 (30S IC); mTufA, Log [ppGpp] 0.29): 1135.97 a.u. | MST Average (30S-bound IF2 (30S IC); mTufA, Log [ppGpp] 0.59): 1126.95 a.u. | MST Average (30S-bound IF2 (30S IC); mTufA, Log [ppGpp] 0.89): 1118.40 a.u. | MST Average (30S-bound IF2 (30S IC); mTufA, Log [ppGpp] 1.19): 1113.08 a.u. | MST Replicates (a.u.) (30S-bound IF2 (30S IC); mTufA, Log [ppGpp] 1.19): 1112.21 a.u. and 1113.44 a.u. and 1113.60 a.u. | MST Average (30S-bound IF2 (30S IC); mTufA, Log [ppGpp] 1.49): 1095.20 a.u. | MST Replicates (a.u.) (30S-bound IF2 (30S IC); mTufA, Log [ppGpp] 1.49): 1094.85 a.u. and 1094.92 a.u. and 1095.85 a.u. | MST Average (30S-bound IF2 (30S IC); mTufA, Log [ppGpp] 1.80): 1070.12 a.u. | MST Replicates (a.u.) (30S-bound IF2 (30S IC); mTufA, Log [ppGpp] 1.80): 1069.34 a.u. and 1070.42 a.u. and 1070.61 a.u. | MST Average (30S-bound IF2 (30S IC); mTufA, Log [ppGpp] 2.10): 1051.04 a.u. | MST Replicates (a.u.) (30S-bound IF2 (30S IC); mTufA, Log [ppGpp] 2.10): 1050.31 a.u. and 1051.38 a.u. and 1051.44 a.u. | MST Average (30S-bound IF2 (30S IC); mTufA, Log [ppGpp] 2.40): 1030.04 a.u. | MST Average (30S-bound IF2 (30S IC); mTufA, Log [ppGpp] 2.70): 1004.77 a.u. | MST Average (30S-bound IF2 (30S IC); mTufA, Log [ppGpp] -0.01): 1139.93 a.u. | MST Average (30S-bound IF2 (30S IC); mTufA, Log [ppGpp] -0.31): 1146.28 a.u. | MST Average (30S-bound IF2 (30S IC); mTufA, Log [ppGpp] -0.61): 1160.80 a.u. | IC50 (30S-bound IF2 (30S IC); read-out: IC50 of 30S IC formation, mInfA, competition with 50 μM GTP): 29 ± 1 µM | IC50 (30S-bound IF2 (30S IC); read-out: IC50 of 30S IC formation, mMF1, competition with 50 μM GTP): 8.6 ± 0.2 µM | IC50 (30S-bound IF2 (30S IC); read-out: IC50 of 30S IC formation, mTufA with SRs I–III removed (+371)): 50 ± 5 µM | IC50 (30S-bound IF2 (30S IC); read-out: IC50 of 30S IC formation, mTufA, competition with 50 μM GTP): 132 ± 1 µM | MST Average (IF2; IF2 0.08 µM): 943.56 a.u. | MST Replicates (IF2; IF2 0.08 µM): 950.05 a.u. and 945.75 a.u. and 934.87 a.u. | MST Average (IF2; IF2 0.16 µM): 943.40 a.u. | MST Replicates (IF2; IF2 0.16 µM): 949.30 a.u. and 935.29 a.u. and 945.62 a.u. | MST Average (IF2; IF2 0.31 µM): 945.38 a.u. | MST Replicates (IF2; IF2 0.31 µM): 948.56 a.u. and 936.80 a.u. and 950.79 a.u. | MST Average (IF2; IF2 0.63 µM): 945.13 a.u. | MST Replicates (IF2; IF2 0.63 µM): 936.31 a.u. and 947.81 a.u. and 951.27 a.u. | MST Average (IF2; IF2 1.25 µM): 946.96 a.u. | MST Replicates (IF2; IF2 1.25 µM): 952.23 a.u. and 948.54 a.u. and 940.12 a.u. | MST Average (IF2; IF2 2.50 µM): 951.73 a.u. | MST Replicates (IF2; IF2 2.50 µM): 945.20 a.u. and 956.43 a.u. and 953.55 a.u. | MST Average (IF2; IF2 5.00 µM): 958.05 a.u. | MST Replicates (IF2; IF2 5.00 µM): 952.00 a.u. and 959.98 a.u. and 962.17 a.u. | MST Average (IF2; IF2 10.00 µM): 963.39 a.u. | MST Replicates (IF2; IF2 10.00 µM): 958.44 a.u. and 964.79 a.u. and 966.94 a.u. | MST Average (IF2; IF2 20.00 µM): 974.27 a.u. | MST Replicates (IF2; IF2 20.00 µM): 972.33 a.u. and 976.56 a.u. and 973.92 a.u. | MST Average (IF2; IF2 40.00 µM): 980.83 a.u. | MST Replicates (IF2; IF2 40.00 µM): 982.65 a.u. and 981.22 a.u. and 978.62 a.u.
